From ChEMBL document CHEMBL3124761, “Synthesis and biological evaluation of N,N'-squaramides with high in vivo efficacy and low toxicity: toward a low-cost drug against Chagas disease” (J Med Chem, 2014)
Values belong to the compound of their own block, whether it stands above or below them. Active and inactive are the calls of the source. The rule behind the calls is not given here.

Columns and labels:
[1] = Selectivity index, ratio of IC50 for African green monkey Vero cells to IC50 for amastigote stage of Trypanosoma cruzi IRHOD/CO/2008/SN3 infected in African green monkey Vero cells; format: toxicity, cell-based; settings: read-out: Ratio IC50
[2] = Selectivity index, ratio of IC50 for African green monkey Vero cells to IC50 for epimastigote stage of Trypanosoma cruzi IRHOD/CO/2008/SN3; format: toxicity, cell-based; settings: read-out: Ratio IC50
Vero = test: Cytotoxicity against African green monkey Vero cells assessed as cell viability after 72 hrs by propidium iodide/fluorescein diacetate staining-based flow cytometric analysis; settings: Chlorocebus sabaeus
Trypanosoma cruzi [3] = test: Antitrypanosomal activity against amastigote stage of Trypanosoma cruzi IRHOD/CO/2008/SN3 infected in African green monkey Vero cells assessed as parasite growth inhibition after 72 hrs by Giemsa staining-based microscopic analysis; format: functional, organism-based; settings: IRHOD/CO/2008/SN3, Vero
Trypanosoma cruzi [4] = test: Antitrypanosomal activity against epimastigote stage of Trypanosoma cruzi IRHOD/CO/2008/SN3 assessed as parasite growth inhibition after 72 hrs by Neubauer hemocytometric chamber analysis; format: functional, organism-based; settings: IRHOD/CO/2008/SN3, 72 h
Mus musculus [5] = test: Toxicity in BALB/c albino mouse infected with blood trypomastigote stage of Trypanosoma cruzi assessed as change in alkaline phosphatase level in serum at 25 mg/kg, ip administered on day 7 to 12 post-infection measured after day 120 relative to control; format: organism-based; design: dose 25 mg/kg, route intraperitoneal; settings: in vivo
Mus musculus [6] = test: Toxicity in BALB/c albino mouse infected with blood trypomastigote stage of Trypanosoma cruzi assessed as change in ALT/GPT level in serum at 25 mg/kg, ip administered on day 7 to 12 post-infection measured after day 120 relative to control; format: organism-based; design: dose 25 mg/kg, route intraperitoneal; settings: in vivo
Mus musculus [7] = test: Toxicity in BALB/c albino mouse infected with blood trypomastigote stage of Trypanosoma cruzi assessed as increase in AST/GOT level in serum at 25 mg/kg, ip administered on day 7 to 12 post-infection measured after day 120 relative to control; format: organism-based; design: dose 25 mg/kg, route intraperitoneal; settings: in vivo
Mus musculus [8] = test: Toxicity in BALB/c albino mouse infected with blood trypomastigote stage of Trypanosoma cruzi assessed as change in total bilirubin level in serum at 25 mg/kg, ip administered on day 7 to 12 post-infection measured after day 120 relative to control; format: organism-based; design: dose 25 mg/kg, route intraperitoneal; settings: in vivo
Mus musculus [9] = test: Toxicity in BALB/c albino mouse infected with blood trypomastigote stage of Trypanosoma cruzi assessed as change in LDH level in serum at 25 mg/kg, ip administered on day 7 to 12 post-infection measured after day 120 relative to control; format: organism-based; design: dose 25 mg/kg, route intraperitoneal; settings: in vivo
Mus musculus [10] = test: Toxicity in BALB/c albino mouse infected with blood trypomastigote stage of Trypanosoma cruzi assessed as increase in creatinephophokinase-MB level in serum at 25 mg/kg, ip administered on day 7 to 12 post-infection measured after day 120 relative to control; format: organism-based; design: dose 25 mg/kg, route intraperitoneal; settings: in vivo
Mus musculus [11] = test: Toxicity in BALB/c albino mouse infected with blood trypomastigote stage of Trypanosoma cruzi assessed as increase in uric acid level in serum at 25 mg/kg, ip administered on day 7 to 12 post-infection measured after day 120 relative to control; format: organism-based; design: dose 25 mg/kg, route intraperitoneal; settings: in vivo
Mus musculus [12] = test: Toxicity in BALB/c albino mouse infected with blood trypomastigote stage of Trypanosoma cruzi assessed as change in urea level in serum at 25 mg/kg, ip administered on day 7 to 12 post-infection measured after day 120 relative to control; format: organism-based; design: dose 25 mg/kg, route intraperitoneal; settings: in vivo
Trypanosoma cruzi [13] = test: Trypanocidal activity against metacyclic trypomastigote stage of Trypanosoma cruzi infected in BALB/c albino mouse acute chagas disease model assessed as inhibition of parasitemia at 25 mg/kg, ip administered on day 7 to 12 post-infection measured every 2 days until day 40 […] relative to control; format: functional; settings: route intraperitoneal
Trypanosoma cruzi [14] = test: Trypanocidal activity against metacyclic trypomastigote stage of Trypanosoma cruzi infected in BALB/c albino mouse acute chagas disease model assessed as reduction of parasite burden at 25 mg/kg, ip administered on day 7 to 12 post-infection measured on day 14 by ELISA; format: functional, organism-based; design: dose 25 mg/kg
Mus musculus [15] = test: Toxicity in BALB/c albino mouse assessed as mortality at 25 mg/kg, ip administered for 5 days; format: organism-based; design: dose 25 mg/kg, route intraperitoneal; settings: in vivo, 120 h
Trypanosoma cruzi [16] = test: (§1) Antitrypanosomal activity against trypomastigote stage of Trypanosoma cruzi IRHOD/CO/2008/SN3 assessed as reduction of trypomastigote number per mililiter of culture medium at IC25 preincubated for 12 hrs followed by compound washout measured every 48 hrs for 10 days by Neubauer hemocytometric chamber analysis relative to control; format: functional
Trypanosoma cruzi [17] = test: as §1, with “amastigote” for “trypomastigote”, “IRHOD/CO/2008/SN3 infected in African green monkey Vero cells” for “IRHOD/CO/2008/SN3”, “cell” for “mililiter of culture medium”; format: functional
Trypanosoma cruzi [18] = test: Antitrypanosomal activity against amastigote stage of Trypanosoma cruzi IRHOD/CO/2008/SN3 infected in African green monkey Vero cells assessed as decrease in infection rate at IC25 preincubated for 12 hrs followed by compound washout measured every 48 hrs for 10 days by Neubauer hemocytometric chamber analysis relative to control; format: functional
Trypanosoma cruzi [19] = test: Antitrypanosomal activity against epimastigote stage of Trypanosoma cruzi IRHOD/CO/2008/SN3 assessed as mortality at IC25 after 72 hrs by TEM analysis; format: functional, organism-based
Trypanosoma cruzi [20] = test: Antitrypanosomal activity against epimastigote stage of Trypanosoma cruzi IRHOD/CO/2008/SN3 assessed as formation of electron-dense vacuoles at IC25 after 72 hrs by TEM analysis; format: functional, organism-based
Trypanosoma cruzi [21] = test: Antitrypanosomal activity against epimastigote stage of Trypanosoma cruzi IRHOD/CO/2008/SN3 assessed as appearance of enormous reservosomes at IC25 after 72 hrs by TEM analysis; format: functional, organism-based
Trypanosoma cruzi [22] = test: Antitrypanosomal activity against epimastigote stage of Trypanosoma cruzi IRHOD/CO/2008/SN3 assessed as appearance of swollen structure filled with empty vacuoles at IC25 after 72 hrs by TEM analysis; format: functional, organism-based
Trypanosoma cruzi [23] = test: Antitrypanosomal activity against epimastigote stage of Trypanosoma cruzi IRHOD/CO/2008/SN3 assessed as change in excreted succinate level at IC25 after 96 hrs by 1H NMR analysis relative to control; format: functional
Trypanosoma cruzi [24] = test: Antitrypanosomal activity against epimastigote stage of Trypanosoma cruzi IRHOD/CO/2008/SN3 assessed as change in excreted pyruvate level at IC25 after 96 hrs by 1H NMR analysis relative to control; format: functional
Trypanosoma cruzi [25] = test: Antitrypanosomal activity against epimastigote stage of Trypanosoma cruzi IRHOD/CO/2008/SN3 assessed as change in excreted acetate level at IC25 after 96 hrs by 1H NMR analysis relative to control; format: functional
Trypanosoma cruzi [26] = test: Antitrypanosomal activity against epimastigote stage of Trypanosoma cruzi IRHOD/CO/2008/SN3 assessed as change in excreted alanine level at IC25 after 96 hrs by 1H NMR analysis relative to control; format: functional
Trypanosoma cruzi [27] = test: Antitrypanosomal activity against epimastigote stage of Trypanosoma cruzi IRHOD/CO/2008/SN3 assessed as change in excreted lactate level at IC25 after 96 hrs by 1H NMR analysis relative to control; format: functional

SMILES: CN(C)CCCNc1c(NCCCNc2c(NCCCN(C)C)c(=O)c2=O)c(=O)c1=O
selectivity ratio [1]: 0.2
selectivity ratio [2]: 0.1
IC50 (Vero): 11.4 µM
IC50 (Trypanosoma cruzi [3]): 46 µM
IC50 (Trypanosoma cruzi [4]): 96.2 µM

SMILES: CCCCNc1c(NCCCC(=O)O)c(=O)c1=O
selectivity ratio [1]: 0.3
selectivity ratio [2]: 1.2
IC50 (Vero): 21.6 µM
IC50 (Trypanosoma cruzi [3]): 66.9 µM
IC50 (Trypanosoma cruzi [4]): 17.3 µM

SMILES: O=c1c(NCc2ccccc2)c(NC2CCN(Cc3ccccc3)CC2)c1=O
selectivity ratio [1]: 9.7
selectivity ratio [2]: 3.5
IC50 (Vero): 338 µM
IC50 (Trypanosoma cruzi [3]): 34.7 µM
IC50 (Trypanosoma cruzi [4]): 96.9 µM

SMILES: O=c1c(O)c(Nc2ccccc2O)c1=O
selectivity ratio [1]: 5.2
selectivity ratio [2]: 4.5
IC50 (Vero): 228 µM
IC50 (Trypanosoma cruzi [3]): 44 µM
IC50 (Trypanosoma cruzi [4]): 50.8 µM

SMILES: CN(CCCNc1c(NCCC[N+](C)(C)C)c(=O)c1=O)CCCNc1c(NCCC[N+](C)(C)C)c(=O)c1=O.[I-].[I-]
Activity (Mus musculus [5]): < 10%
Activity (Mus musculus [6]): < 10%
Activity (Mus musculus [7]): 40%
Activity (Mus musculus [8]): < 10%
Activity (Mus musculus [9]): < 10%
Activity (Mus musculus [10]): 30%
Activity (Mus musculus [11]): 30%
Activity (Mus musculus [12]): < 10%
inhibition in vivo at 25 mg/kg (Trypanosoma cruzi [13]): 37%
Activity (Trypanosoma cruzi [14]): Active
Activity (Mus musculus [15]): Non-toxic
inhibition (INH) (Trypanosoma cruzi [16]): 49%
inhibition (INH) (Trypanosoma cruzi [17]): 30%
inhibition (INH) (Trypanosoma cruzi [18]): 30%
selectivity ratio [1]: 17.5
selectivity ratio [2]: 16.2
IC50 (Vero): 301 µM
IC50 (Trypanosoma cruzi [3]): 17.1 µM
IC50 (Trypanosoma cruzi [4]): 18.5 µM
Activity (Trypanosoma cruzi [19]): Active
Activity (Trypanosoma cruzi [20]): Active
Activity (Trypanosoma cruzi [21]): Active
Activity (Trypanosoma cruzi [22]): Active
Activity (Trypanosoma cruzi [23]): -21.2%
Activity (Trypanosoma cruzi [24]): 37.4%
Activity (Trypanosoma cruzi [25]): -12%
Activity (Trypanosoma cruzi [26]): -13.3%
Activity (Trypanosoma cruzi [27]): -20.6%

Further lines, with some results ahead:

IC50 (Trypanosoma cruzi [3]): 10.1 µM
IC50 (Trypanosoma cruzi [4]): 15.9 µM
SMILES: CN(C)c1ccc(Nc2c(O)c(=O)c2=O)cc1
selectivity ratio [1]: 1.3
selectivity ratio [2]: 0.8
IC50 (Vero): 12.9 µM

IC50 (Trypanosoma cruzi [3]): 22.4 µM
IC50 (Trypanosoma cruzi [4]): 49.8 µM
SMILES: CCCCCCCCCCCCCCCCNc1c(NCCN(C)C)c(=O)c1=O
selectivity ratio [1]: 3.4
selectivity ratio [2]: 1.8
IC50 (Vero): 90.1 µM

IC50 (Trypanosoma cruzi [3]): 18.4 µM
IC50 (Trypanosoma cruzi [4]): 26.3 µM
SMILES: CCOC(=O)c1ccc(Nc2c(O)c(=O)c2=O)cc1
selectivity ratio [1]: 1.2
selectivity ratio [2]: 0.8
IC50 (Vero): 21.5 µM
